US9493446B2, “Orexin receptor antagonists which are [ortho bi-(hetero-)aryl]-[2-(meta bi-(hetero-)aryl)-pyrrolidin-1-yl]-methanone derivatives” (Actelion Pharmaceuticals Ltd, priority 2012, dated 2016)

How the values were obtained:
human orexin-2 receptor = human orexin-2 receptor (Homo sapiens (Human), UniProt O43614); assay: Intracellular calcium measurement (FLIPR), CHO cells expressing human orexin-2 receptor, 3 nM orexin-A; type: cell-based; details: CHO cells expressing human orexin-2 receptor, FLIPR, 3 nM orexin-A; geometric mean if determined several times; read-out: IC50 OX2
Sequence of human orexin-2 receptor (O43614 whole entry): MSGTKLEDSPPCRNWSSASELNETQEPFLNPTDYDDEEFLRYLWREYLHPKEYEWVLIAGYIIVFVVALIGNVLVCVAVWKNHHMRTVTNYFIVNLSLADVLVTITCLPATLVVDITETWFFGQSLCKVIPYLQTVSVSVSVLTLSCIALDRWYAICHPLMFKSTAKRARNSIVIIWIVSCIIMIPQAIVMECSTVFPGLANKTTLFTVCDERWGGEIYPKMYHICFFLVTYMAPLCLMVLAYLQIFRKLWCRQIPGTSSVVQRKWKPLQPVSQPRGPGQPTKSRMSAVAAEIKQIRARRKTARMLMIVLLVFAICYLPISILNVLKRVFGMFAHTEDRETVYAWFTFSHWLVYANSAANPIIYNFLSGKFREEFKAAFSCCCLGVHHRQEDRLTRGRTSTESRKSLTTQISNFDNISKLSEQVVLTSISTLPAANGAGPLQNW
Experimental: (§1) In Vitro Assay: Intracellular Calcium Measurements:
(§2) Chinese hamster ovary (CHO) cells expressing the human orexin-1 receptor and the human orexin-2 receptor, respectively, are grown in culture medium (Ham F-12 with L-Glutamine) containing 300 μg/mL G418, 100 U/mL penicillin, 100 μg/mL streptomycin and 10% heat inactivated fetal calf serum (FCS). The cells are seeded at 20,000 cells/well into 384-well black clear bottom sterile plates (Greiner). The seeded plates are incubated overnight at 37° C. in 5% CO2.
(§3) Human orexin-A as an agonist is prepared as 1 mM stock solution in MeOH: water (1:1), diluted in HBSS containing 0.1% bovine serum albumin (BSA), NaHCO3: 0.375 g/L and 20 mM HEPES for use in the assay at a final concentration of 3 nM.
(§4) Antagonists are prepared as 10 mM stock solution in DMSO, then diluted in 384-well plates using DMSO followed by a transfer of the dilutions into in HBSS containing 0.1% bovine serum albumin (BSA), NaHCO3: 0.375 g/L and 20 mM HEPES. On the day of the assay, 50 μL of staining buffer (HBSS containing 1% FCS, 20 mM HEPES, NaHCO3: 0.375 g/L, 5 mM probenecid (Sigma) and 3 μM of the fluorescent calcium indicator fluo-4 AM (1 mM stock solution in DMSO, containing 10% pluronic) is added to each well. The 384-well cell-plates are incubated for 50 min at 37° C. in 5% CO2 followed by equilibration at rt for 30 min before measurement.
(§5) Within the Fluorescent Imaging Plate Reader (FLIPR Tetra, Molecular Devices), antagonists are added to the plate in a volume of 10 μL/well, incubated for 120 min and finally 10 μL/well of agonist is added. Fluorescence is measured for each well at 1 second intervals, and the height of each fluorescence peak is compared to the height of the fluorescence peak induced by 3 nM orexin-A with vehicle in place of antagonist. […] Optimized conditions were achieved by adjustment of pipetting speed and cell splitting regime. The calculated IC50 values may fluctuate depending on the daily cellular assay performance. Fluctuations of this kind are known to those skilled in the art.

orexin-1 = orexin-1 (Homo sapiens (Human), UniProt O43613); assay: Intracellular calcium measurement (FLIPR), CHO cells expressing human orexin-1 receptor, 3 nM orexin-A; type: cell-based; details: CHO cells expressing human orexin-1 receptor, FLIPR, 3 nM orexin-A; geometric mean if determined several times; read-out: IC50 OX1
Sequence of orexin-1 (O43613 whole entry): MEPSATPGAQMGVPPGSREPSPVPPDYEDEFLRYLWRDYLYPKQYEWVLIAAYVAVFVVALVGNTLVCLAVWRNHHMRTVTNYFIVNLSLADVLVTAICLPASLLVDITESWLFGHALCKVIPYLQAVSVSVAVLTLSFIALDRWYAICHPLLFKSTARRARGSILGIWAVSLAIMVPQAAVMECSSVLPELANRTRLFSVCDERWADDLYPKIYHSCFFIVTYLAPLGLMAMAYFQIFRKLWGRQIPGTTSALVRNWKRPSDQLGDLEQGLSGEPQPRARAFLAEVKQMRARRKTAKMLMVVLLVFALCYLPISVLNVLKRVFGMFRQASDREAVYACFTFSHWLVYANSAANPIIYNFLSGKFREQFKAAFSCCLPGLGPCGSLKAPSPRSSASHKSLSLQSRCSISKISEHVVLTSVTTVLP
Experimental: as §1, §2, §3, §4, §5

Row | IC50 (human orexin-2 receptor) | IC50 (orexin-1) | Compound
1 | 0.04 µM | 0.373 µM | Cc1ccc(-n2nccn2)c(C(=O)N2CCC[C@H]2c2nc(-c3ccccc3)no2)c1 [Example 1, (5-Methyl-2-[1,2,3]triazol-2-yl-phenyl)-[(S)-2-(3-phenyl-[1,2,4]oxadiazol-5-yl)-pyrrolidin-1-yl]-methanone]
2 | 0.023 µM | 0.028 µM | CC(=O)n1cc(-c2noc([C@@H]3CCCN3C(=O)c3cc(C)ccc3-n3nccn3)n2)c2ccccc21 [Example 85, 1-(3-{5-[(S)-1-(5-Methyl-2-[1,2,3]triazol-2-yl-benzoyl)-pyrrolidin-2-yl]-[1,2,4]oxadiazol-3-yl}-indol-1-yl)-ethanone]
3 | 0.04 µM | 0.103 µM | Cc1ccc(-n2nccn2)c(C(=O)N2CCC[C@H]2c2nc(-c3cccnc3OC(F)F)no2)c1 [Example 86, {(S)-2-[3-(2-Difluoromethoxy-pyridin-3-yl)-[1,2,4]oxadiazol-5-yl]-pyrrolidin-1-yl}-(5-methyl-2-[1,2,3]triazol-2-yl-phenyl)-methanone]
4 | 0.07 µM | 0.439 µM | Cc1ccc(-n2nccn2)c(C(=O)N2CCC[C@H]2c2nc(-c3ccccc3CCO)no2)c1 [Example 87, ((S)-2-{3-[2-(2-Hydroxy-ethyl)-phenyl]-[1,2,4]oxadiazol-5-yl}-pyrrolidin-1-yl)-(5-methyl-2-[1,2,3]triazol-2-yl-phenyl)-methanone]
5 | 0.207 µM | 0.258 µM | Cc1ccc(-n2nccn2)c(C(=O)N2CCC[C@H]2c2noc(-c3ccccc3)n2)c1 [Example 302, (5-Methyl-2-[1,2,3]triazol-2-yl-phenyl)-[(S)-2-(5-phenyl-[1,2,4]oxadiazol-3-yl)-pyrrolidin-1-yl]-methanone]
6 | 0.004 µM | 0.013 µM | Cc1ccc(-n2nccn2)c(C(=O)N2CCC[C@H]2c2noc(-c3ccccc3OC(F)(F)F)n2)c1 [Example 303, (5-Methyl-2-[1,2,3]triazol-2-yl-phenyl)-{(S)-2-[5-(2-trifluoromethoxy-phenyl)-[1,2,4]oxadiazol-3-yl]-pyrrolidin-1-yl}-methanone]
7 | 0.007 µM | 0.042 µM | Cc1ccc(-n2nccn2)c(C(=O)N2CCC[C@H]2c2noc(-c3cccc(Cl)c3C)n2)c1 [Example 318, {(S)-2-[5-(3-Chloro-2-methyl-phenyl)-[1,2,4]oxadiazol-3-yl]-pyrrolidin-1-yl}-(5-methyl-2-[1,2,3]triazol-2-yl-phenyl)-methanone]
8 | 0.133 µM | 1.06 µM | Cc1ccc(-n2nccn2)c(C(=O)N2CCC[C@H]2c2cc(-c3ccccc3)no2)c1 [Example 420, (5-Methyl-2-[1,2,3]triazol-2-yl-phenyl)-[(S)-2-(3-phenyl-isoxazol-5-yl)-pyrrolidin-1-yl]-methanone]
9 | 0.359 µM | 1.49 µM | Cc1cccc(-c2nnc([C@@H]3CCCN3C(=O)c3cc(C)ccc3-n3nccn3)o2)c1 [Example 438, (5-Methyl-2-[1,2,3]triazol-2-yl-phenyl)-[(S)-2-(5-m-tolyl-[1,3,4]oxadiazol-2-yl)-pyrrolidin-1-yl]-methanone]
10 | 0.236 µM | 0.762 µM | COc1c(F)cccc1-c1nnc([C@@H]2CCCN2C(=O)c2cc(C)ccc2-n2nccn2)o1 [Example 448, {(S)-2-[5-(3-Fluoro-2-methoxy-phenyl)-[1,3,4]oxadiazol-2-yl]-pyrrolidin-1-yl}-(5-methyl-2-[1,2,3]triazol-2-yl-phenyl)-methanone]
11 | 0.236 µM | 0.28 µM | CCOc1c(F)cccc1-c1nnc([C@@H]2CCCN2C(=O)c2cc(C)ccc2-n2nccn2)o1 [Example 449, {(S)-2-[5-(2-Ethoxy-3-fluoro-phenyl)-[1,3,4]oxadiazol-2-yl]-pyrrolidin-1-yl}-(5-methyl-2-[1,2,3]triazol-2-yl-phenyl)-methanone]
12 | 0.095 µM | 0.182 µM | CCOc1ncccc1-c1nnc([C@@H]2CCCN2C(=O)c2cc(C)ccc2-n2nccn2)o1 [Example 450, {(S)-2-[5-(2-Ethoxy-pyridin-3-yl)-[1,3,4]oxadiazol-2-yl]-pyrrolidin-1-yl}-(5-methyl-2-[1,2,3]triazol-2-yl-phenyl)-methanone]
13 | 0.326 µM | 0.535 µM | Cc1cc(C)cc(-c2nnc([C@@H]3CCCN3C(=O)c3cc(C)ccc3-n3nccn3)o2)c1 [Example 451, {(S)-2-[5-(3,5-Dimethyl-phenyl)-[1,3,4]oxadiazol-2-yl]-pyrrolidin-1-yl}-(5-methyl-2-[1,2,3]triazol-2-yl-phenyl)-methanone]
14 | 0.211 µM | 0.249 µM | CCc1ccccc1-c1nnc([C@@H]2CCCN2C(=O)c2cc(C)ccc2-n2nccn2)o1 [Example 452, {(S)-2-[5-(2-Ethyl-phenyl)-[1,3,4]oxadiazol-2-yl]-pyrrolidin-1-yl}-(5-methyl-2-[1,2,3]triazol-2-yl-phenyl)-methanone]
15 | 0.08 µM | 0.398 µM | Cc1ccc(-n2nccn2)c(C(=O)N2CCC[C@H]2c2nnc(-c3cccc(F)c3C)o2)c1 [Example 453, {(S)-2-[5-(3-Fluoro-2-methyl-phenyl)-[1,3,4]oxadiazol-2-yl]-pyrrolidin-1-yl}-(5-methyl-2-[1,2,3]triazol-2-yl-phenyl)-methanone]
16 | 0.375 µM | 1.14 µM | CCOc1ccccc1-c1nnc([C@@H]2CCCN2C(=O)c2cc(C)ccc2-n2nccn2)o1 [Example 454, {(S)-2-[5-(2-Ethoxy-phenyl)-[1,3,4]oxadiazol-2-yl]-pyrrolidin-1-yl}-(5-methyl-2-[1,2,3]triazol-2-yl-phenyl)-methanone]
17 | 1.69 µM | 0.835 µM | Cc1ccc(-n2nccn2)c(C(=O)N2CCC[C@H]2c2nnc(-c3cccc(Cl)c3)o2)c1 [Example 455, {(S)-2-[5-(3-Chloro-phenyl)-[1,3,4]oxadiazol-2-yl]-pyrrolidin-1-yl}-(5-methyl-2-[1,2,3]triazol-2-yl-phenyl)-methanone]
18 | 0.001 µM | – | CCOc1c(F)cccc1-c1nc([C@@H]2CCCN2C(=O)c2cc(C)c(C)cc2-n2nccn2)no1 [compound 324, (4,5-Dimethyl-2-[1,2,3]triazol-2-yl-phenyl)-{(S)-2-[5-(2-ethoxy-3-fluoro-phenyl)-[1,2,4]oxadiazol-3-yl]-pyrrolidin-1-yl}-methanone]
19 | 0.0004 µM | – | COc1c(F)cccc1-c1nc([C@@H]2CCCN2C(=O)c2cc(C)c(C)cc2-n2nccn2)no1 [compound 340, (4,5-Dimethyl-2-[1,2,3]triazol-2-yl-phenyl)-{(S)-2-[5-(3-fluoro-2-methoxy-phenyl)-[1,2,4]oxadiazol-3-yl]-pyrrolidin-1-yl}-methanone]
20 | – | 0.65 µM | Cc1ccc(C(=O)N2CCC[C@H]2c2cnc(-c3ccccc3)[nH]2)c(-n2nccn2)c1 [compound 520, (4-Methyl-2-[1,2,3]triazol-2-yl-phenyl)-[(S)-2-(2-phenyl-3H-imidazol-4-yl)-pyrrolidin-1-yl]-methanone]

Row | Compound | IC50 (human orexin-2 receptor) | IC50 (orexin-1)
21 | CCOc1ncccc1-c1nc([C@@H]2CCCN2C(=O)c2cc(Cl)c(C)cc2-n2nccn2)no1 [compound 380] | 0.001 µM | –
22 | {(S)-2-[3-(3-Chloro-2-methyl-phenyl)-[1,2,4]oxadiazol-5-yl]-pyrrolidin-1-yl}-[3-(2-chloro-phenyl)-5-methyl-isoxazol-4-yl]-methanone [Reference compound 7, reference compound] | 0.037 µM | –
